Source: patent publication US8901147B2, “Bi-heteroaryl compounds as Vps34 inhibitors” (Novartis AG, priority 2010, dated 2014)

Biological target: recombinant human Vps34 (Homo sapiens, UniProt Q8NEB9)
Test: Vps34 KinaseGlo assay
Assay type: biochemical
Conditions: KinaseGlo luminescence ATP detection; PI/OG substrate; 1 μM ATP; room temperature; 8 concentrations, n=2
Procedure: It was then resuspended in 3% OctylGlucoside by vortexing and stored at 4° C. 5 μL of a mix of PI/OG with recombinant human Vps34 were added. Kinase reactions were started by addition of 5 μl of ATP-mix containing in a final volume 10 μL 10 mM TRIS-HCl pH 7.5, 3 mM MgCl2, 50 mM NaCl, 0.05% CHAPS, 1 mM DTT and 1 μM ATP, and occurred at room temperature. Reactions were stopped with 10 μl of KinaseGlo and plates were read 10 minutes later in a Synergy2 reader using an integration time of 0.1 seconds per well.

Sequence of recombinant human Vps34 (Q8NEB9 whole entry): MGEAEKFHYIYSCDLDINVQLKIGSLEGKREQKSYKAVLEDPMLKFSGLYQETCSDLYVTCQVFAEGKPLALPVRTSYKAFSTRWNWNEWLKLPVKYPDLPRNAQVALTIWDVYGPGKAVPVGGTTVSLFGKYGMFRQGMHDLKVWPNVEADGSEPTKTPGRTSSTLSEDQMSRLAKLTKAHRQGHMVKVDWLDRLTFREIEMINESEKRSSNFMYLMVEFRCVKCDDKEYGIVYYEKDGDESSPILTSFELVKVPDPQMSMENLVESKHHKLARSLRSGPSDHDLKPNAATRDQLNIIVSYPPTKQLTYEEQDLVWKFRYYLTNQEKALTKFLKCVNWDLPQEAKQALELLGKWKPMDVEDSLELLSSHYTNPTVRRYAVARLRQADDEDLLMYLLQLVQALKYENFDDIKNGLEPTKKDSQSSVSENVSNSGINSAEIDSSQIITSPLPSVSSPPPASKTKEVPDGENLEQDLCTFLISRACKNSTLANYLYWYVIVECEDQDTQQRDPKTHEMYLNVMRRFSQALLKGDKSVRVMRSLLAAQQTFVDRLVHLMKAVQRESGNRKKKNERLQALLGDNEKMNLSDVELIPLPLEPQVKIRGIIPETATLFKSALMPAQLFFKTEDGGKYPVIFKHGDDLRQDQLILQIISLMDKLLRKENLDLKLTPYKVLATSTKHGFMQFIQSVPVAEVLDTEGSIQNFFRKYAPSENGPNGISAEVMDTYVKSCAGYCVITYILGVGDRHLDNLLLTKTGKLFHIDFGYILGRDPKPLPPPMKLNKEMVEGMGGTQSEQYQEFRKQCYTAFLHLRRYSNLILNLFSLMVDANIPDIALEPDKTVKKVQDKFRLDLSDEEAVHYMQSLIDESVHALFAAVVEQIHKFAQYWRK

IC50	Compound
187 nM	Nc1ncc(-c2ccnc(NCCc3c[nH]cn3)n2)c(CC2CC2)n1 [Example 15t, N^2-(2-(1H-imidazol-4-yl)ethyl)-4′-(cyclopropylmethyl)-4,5′-bipyrimidine-2,2′-diamine]
1500 nM	Nc1ncc(-c2ccnc(NC3CCCOC3)n2)c(CC2CC2)n1 (stereo not drawn) [Example 15d, 4′-(cyclopropylmethyl)-N2-(tetrahydro-2H-pyran-3-yl)-4,5′-bipyrimidine-2,2′-diamine]
62 nM	CC(=O)Nc1ccc(Nc2nccc(-c3cnc(N)nc3CC3CC3)n2)cc1 [Example 15n, N-(4-(2′-amino-4′-(cyclopropylmethyl)-4,5′-bipyrimidin-2-ylamino)phenyl)acetamide]
231 nM	CN(C)c1cccc(Nc2nccc(-c3cnc(N)nc3CC3CC3)n2)c1 [Example 15y, 4′-(cyclopropylmethyl)-N^2-(3-(dimethylamino)phenyl)-4,5′-bipyrimidine-2,2′-diamine]
196 nM	Nc1ncc(-c2ccnc(Nc3ccccn3)n2)c(CC2CC2)n1 [Example 15e, 4′-(cyclopropylmethyl)-N^2-(pyridin-2-yl)-4,5′-bipyrimidine-2,2′-diamine]

The next lines start with the compound.

Compound	IC50
CNc1ncc(-c2ccnc(Nc3ccc(OC)c(OC)c3)n2)c(CC2CC2)n1 [Example 14q, 4′-(cyclopropylmethyl)-N^2-(3,4-dimethoxyphenyl)-N^2′-methyl-4,5′-bipyrimidine-2,2′-diamine]	862 nM
c1cc(Nc2nccc(-c3cnc(NC4CCCC4)nc3CC3CC3)n2)ccn1 [Example 10e, N2′-cyclopentyl-4′-(cyclopropylmethyl)-N2-(pyridin-4-yl)-4,5′-bipyrimidine-2,2′-diamine]	78.5 nM
Nc1ncc(-c2ccnc(Nc3ccncc3)n2)c(CO)n1 [Example 23, [2′-Amino-2-(pyridin-4-ylamino)-4,5′-bipyrimidin-4′-yl]methanol]	130 nM
CNc1ncc(-c2ccnc(N[C@H]3CC[C@H](OC)CC3)n2)c(CC2CC2)n1 [Example 14o, 4′-(cyclopropylmethyl)-N^2-((1r,4r)-4-methoxycyclohexyl)-N^2′-methyl-4,5′-bipyrimidine-2,2′-diamine]	374 nM
COCCNc1ncc(-c2ccnc(Nc3ccncc3)n2)c(CC2CC2)n1 [Example 10n, 4′-(cyclopropylmethyl)-N^2′-(2-methoxyethyl)-N^2-(pyridin-4-yl)-4,5′-bipyrimidine-2,2′-diamine]	31 nM
CC(C)Nc1ncc(-c2ccnc(Nc3ccncc3)n2)c(CC2CC2)n1 [Example 12a, 4′-Cyclopropylmethyl-N^2′-isopropyl-N^2-pyridin-4-yl-[4,5′]bipyrimidinyl-2,2′-diamine]	34.5 nM
(S)-1-[4′-Cyclopropylmethyl-2-(pyridin-4-ylamino)-[4,5]bipyrimidinyl-2′-ylamino]-propan-2-ol [Example 10k]	276 nM
O[C@H]1CC[C@H](Nc2nccc(-c3cncnc3CC3CC3)n2)CC1 [Example 6a, Trans-4-{[4′-(cyclopropylmethyl)-4,5′-bipyrimidin-2-yl]amino}cyclohexanol]	1000 nM
CNc1ncc(-c2ccnc(NCCCN)n2)c(CC2CC2)n1 [Example 14s, N^2-(3-aminopropyl)-4′-(cyclopropylmethyl)-N^2′-methyl-4,5′-bipyrimidine-2,2′-diamine]	7130 nM
CNc1ncc(-c2ccnc(NC3CCC3)n2)c(CC2CC2)n1 [Example 14f, N^2-cyclobutyl-4′-(cyclopropylmethyl)-N^2′-methyl-4,5′-bipyrimidine-2,2′-diamine]	722 nM
